Experiments:
[1] = molecular target: T1, vasopressin V1 receptor (rat liver plasma membranes) (Rattus norvegicus, UniProt P30560); test: Binding Assay to Rat Hepatic V1 Receptors
T1 construct: Rat liver plasma membranes expressing the vasopressin V1 receptor subtypes; from tissue; host or cells: rat liver plasma membranes
Procedure: Binding Assay to Rat Hepatic V1 Receptors
Rat liver plasma membranes expressing the vasopressin V1 receptor subtypes are isolated by sucrose density gradient according to the method described by Lesko et al., (1973). These membranes are quickly suspended in 50.0 mM Tris.HCl buffer, pH 7.4, containing 0.2% bovine serum albumin (BSA) and 0.1 mM phenylmethylsulfonylfluoride (PMSF) and kept frozen at -70° C. until used in subsequent binding experiments. For binding experiments, the following is added to the wells of a ninety-six well format microtiter plate: […] of […] buffer containing 10.0 mM MgCl2, 0.2% heat inactivated BSA and a mixture of protease inhibitors: leupeptin, 1.0 mg %; aprotinin, 1.0 mg %; 1,10-phenanthroline,2.0 mg %; trypsin inhibitor, 10.0 mg % and 0.1 mM PMSF, 20.0 ml of [phenylalanyl-3,4,5, -^3 H] vasopressin (S.A. 45.1 Ci/mmole) […], and the reaction initiated by the addition of 80 ml of tissue membranes containing 20 mg of tissue protein. The plates are kept undisturbed on the bench top at room temperature for 120 min. to reach equilibrium. Non-specific samples are assayed in the presence of 0.1 mM of the unlabeled […] phenylalanylvasopressin, added in 20.0 ml volume.
For test compounds, these are solubilized in 50% dimethylsulfoxide (DMSO) and added in 20.0 ml volume to a final incubation volume of […]. Upon completion of binding, the content of each well is filtered off, using a Brandel® cell Harvester (Gaithersburg, Md.). The radioactivity trapped on the filter disk by the ligand-receptor complex is assessed by liquid scintillation counting in a Packard LS Counter, with an efficiency of 65% for tritium.

vasopressin V2 = test: Vasopressin V2 Antagonist Activity in Conscious Hydrated Rats; format: in vivo, rat; conditions: oral 10 mg/kg, N=2, AVP challenge
Procedure: Vasopressin V2 Antagonist Activity in Conscious Hydrated Rats Conscious hydrated rats are treated with compounds under study from 0.1 to 100 mg/kg orally or vehicle. Two to four rats are used for each compound. One hour later, arginine vasopressin (AVP, antidiuretic Hormone, ADH) dissolved in peanut oil is administered at […] intraperitoneally. Two rats in each test would not receive arginine vasopressin but only the vehicle (peanut oil) to serve as water-loading control. Twenty minutes later each rat is given 30 mL/kg of deionized water orally by gavage and is placed individually in a metabolic cage equipped with a funnel and a graduated glass cylinder to collect urine for four hours. Urine volume is measure and osmolality analyzed by use of a Fiske One-Ten osmometer (Fiske Assoc., Norwood, Mass., USA). Urinary sodium, potassium, and chloride are analyzed by use of ion-specific electrodes in a Beckman E3 (Electrolye 3) Analyzer. In the following results, […] and decreased osmolality relative to AVP-control indicates activity.

[2] = molecular target: T2, oxytocin receptor (rat uteri) (Rattus norvegicus, UniProt P70536); test: Oxytocin Receptor Binding; set-up: species or system rat (Sprague-Dawley); conditions: for IC50: [3H]oxytocin displacement
T2 construct: The uteri are dissected out, cleaned of fat and connective tissues; from tissue; host or cells: uteri of diethylstilbestrol-treated female Sprague-Dawley rats
T2 sequence (P70536 1-388): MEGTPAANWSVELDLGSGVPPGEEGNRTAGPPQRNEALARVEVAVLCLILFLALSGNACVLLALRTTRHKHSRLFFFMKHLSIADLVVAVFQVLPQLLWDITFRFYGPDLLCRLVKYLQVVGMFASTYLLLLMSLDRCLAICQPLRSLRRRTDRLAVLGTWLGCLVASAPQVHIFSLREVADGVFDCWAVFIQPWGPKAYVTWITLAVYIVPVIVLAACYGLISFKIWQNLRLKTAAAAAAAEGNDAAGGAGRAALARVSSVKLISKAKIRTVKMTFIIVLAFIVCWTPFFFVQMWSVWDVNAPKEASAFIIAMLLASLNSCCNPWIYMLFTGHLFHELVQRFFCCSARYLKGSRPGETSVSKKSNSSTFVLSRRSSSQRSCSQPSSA
Procedure: Oxytocin Receptor Binding
Female Sprague-Dawley rats weighing approximately 200-250 g are injected intramuscularly (i.m.) with 0.3 mg/kg of body weight of diethylstilbestrol (DES). The rats are sacrificed 18 hours later under pentobarbital anesthesia. The uteri are dissected out, cleaned of fat and connective tissues and rinsed in 50 ml of normal saline. The tissue pooled from six rats is homogenized in 50 ml of […] Tris. HCl, containing 0.5 mM dithiothreitol and 1.0 mM EDTA, adjusted to pH 7.4, using a polytron at setting 6 with three passes of 10 sec each. The homogenate is passed through two (2) layers of cheesecloth and the filtrate centrifuged at 1000×g for 10 minutes. The clear supernatant is removed and recentrifuged at 165,000×g for 30 minutes. The resulting pellet containing the oxytocin receptors is resuspended in 50.0 mM Tris.HCl containing 5.0 mM MgCl2 at pH 7.4, to give a protein concentration of 2.5 mg/ml of tissue suspension. This preparation is used in subsequent binding assays with [^3 H]oxytocin.
Binding of 3,5-[^3 H]Oxytocin ([^3 H]OT) to its receptors is done in microtiter plates using [^3 H]OT, at various concentrations, in an assay buffer of 50.0 mM Tris.HCI, pH 7.4 and containing 5.0 mM MgCl2, and a mixture of protease inhibitors: BSA, 0.1 mg; aprotinin, 1.0 mg; 1,10-phenanthroline, 2.0 mg; […], 10.0 mg; and PMSF, 0.3 mg per 100 ml of buffer solution. Non-specific binding is determined in the presence of 1.0 uM unlabeled OT. The binding reaction is terminated after 60 minutes, at 22° C., by rapid filtration through glass fiber filters using a Brandel® cell harvester (Biomedical Research and Development Laboratories, Inc., Gaithersburg, Md.). Competition experiments are conducted at equilibrium using 1.0 nM [^3 H]OT and varying the concentration of the displacing agents. The concentrations of agent displacing 50% of [^3 H]OT at its sites (IC50) are calculated by a computer assisted LUNDON-2 program (LUNDON SOFTWARE INC., Ohio, USA).

T1 sequence (P30560 whole entry): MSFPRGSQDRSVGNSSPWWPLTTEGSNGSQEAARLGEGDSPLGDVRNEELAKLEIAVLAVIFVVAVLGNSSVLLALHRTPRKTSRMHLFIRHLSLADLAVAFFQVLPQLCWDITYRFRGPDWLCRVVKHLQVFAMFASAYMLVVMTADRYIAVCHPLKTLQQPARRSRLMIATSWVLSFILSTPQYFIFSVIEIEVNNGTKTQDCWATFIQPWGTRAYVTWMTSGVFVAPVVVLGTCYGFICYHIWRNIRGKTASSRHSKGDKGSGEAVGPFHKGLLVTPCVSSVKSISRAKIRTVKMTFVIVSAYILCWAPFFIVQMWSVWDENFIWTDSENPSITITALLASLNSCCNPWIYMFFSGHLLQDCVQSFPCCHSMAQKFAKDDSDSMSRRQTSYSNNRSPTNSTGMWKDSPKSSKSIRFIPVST

SMILES	IC50 ([1]; rat hepatic V1 receptors) [nM]	Osmolality (vasopressin V2) [MOsm/kg]	Urine Volume (vasopressin V2) [ml/4 hrs]	IC50 [2] [nM]	inhibition at 10 µM [2] [%]	inhibition at 10 µM ([1]; 2 h, rat hepatic V1) [%]	inhibition at 1 µM ([1]; 2 h, rat hepatic V1, at 1 μM) [%]	inhibition at 1 µM [2] [%]
Cc1ccc(F)cc1C(=O)Nc1ccc(C(=O)N2Cc3sccc3Cc3ccccc32)cn1 [Example 2, N-[5-[(9,10-Dihydro-4H-thieno[2,3-c][1]benzazepin-9-yl)carbonyl]-2-pyridinyl]-5-fluoro-2-methylbenzamide]	59	591	16.5	1100	86			
Cc1ccc(F)cc1C(=O)Nc1ccc(C(=O)N2Cc3ccccc3Oc3ncccc32)cn1 [Example 4, N-[5-(Pyrido[2,3-b][1,4]benzoxazepin-5(6H)-ylcarbonyl)-2-pyridinyl]-5-fluoro-2-methylbenzamide]		878	6.8		20	44		
CCCCOc1ccc(C(=O)N2Cc3ccccc3Cc3ccccc32)cc1 [Example 24]		1492	4.3	1800	97			
O=C(c1ccc(-c2ccccc2)cc1)N1Cc2ccccc2Oc2ccccc21 [Example 26, 10-([1,1'-Biphenyl]-4-ylcarbonyl)-10,11-dihydrodibenz[b,f][1,4]oxazepine]		1058	4.5	2500	73		46	
O=C(c1ccc(-c2ccccc2)cc1)N1Cc2sccc2Cc2ccccc21 [Example 27, 9-([1,1'-Biphenyl]-4-ylcarbonyl)-9,10-dihydro-4H-thieno[2,3-c][1]benzazepine]		1317	3.3					83
O=C(c1ccccc1)c1ccc(C(=O)N2Cc3ccccc3Oc3ccccc32)cc1 [Example 32, 10-(4-Benzoylbenzoyl)-10,11-dihydrodibenz[b,f][1,4]oxazepine]		726	9.3	1800	88	53		
Cc1ccc(F)cc1C(=O)Nc1ccc(C(=O)N2Cc3ccccc3CCc3ccccc32)cn1 [Example 45]		979	6.6			34		54
